Test results taken from PMC9271048, “Probing strigolactone perception mechanisms with rationally designed small-molecule agonists stimulating germination of root parasitic weeds” (Nature Communications, 2022).
Where two headings read alike, the source gives them in different places.

Tests used:
[1] = molecular target: T1, ShHTL7 (Striga hermonthica, UniProt A0A0M3PNA2); assay: biochemical; assay type: binding
How it was run: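 Surface plasmon resonance was run at 25 °C on ShHTL7 immobilized by amine coupling, using phosphate-buffered saline with 0.05% P20 and 0.5% DMSO. Each injection had 1 min association and 1 min dissociation, with a 50 μM screen followed by concentration series. KD was derived by kinetic analysis or steady-state affinity.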

[2] = molecular target: T1, ShHTL7; assay: Competitive inhibition of ShHTL7 with Yoshimulactone Green (YLG) as substrate; assay type: biochemical
How it was run: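 YLG hydrolysis by ShHTL7 followed by fluorescence (ex 480/em 520 nm) every 1 min for 30 min; compounds and YLG from fresh DMSO stocks. After subtracting no-enzyme background, the linear 8-min increase was used; IC50 fitted from relative inhibition versus compound concentration.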

[3] = Chemical reactivity analysis (HPLC, methanol/PBS pH 7.4); assay type: physicochemical; conditions: methanol/phosphate-buffered saline mixture; Supplementary Fig. 10 source data; methanol/PBS pH 7.4, 26 °C; read-out: half-life time (t1/2), source data average (converted)
Protocol: Chemical reactivity is an important factor in the bioactivity of natural and synthetic SLs.
One hundred twenty microliters of sample solution was added to a solution of PBS (10 mM, pH 7.4, 810 μL) and methanol (270 μL). The solution was stirred vigorously for 30 s and then transferred to HPLC vial, and the vial was stored at 26 ± 1 °C. […] The analytical column was Extend-C18 (4.6 mm × 150 mm × 5 μm). The mobile phases were CH3CN and H2O (containing 0.1% HCO2H), VCH3CN:VH2O = 50:50, with a flow rate of 1 mL/min, and an injection volume of 5 μL. The percentage of remaining compounds in the solution was calculated from the peak area. The half-life times (t1/2) of samples were calculated.

[4] = system: ShHTLs (10 HTL proteins in S. hermonthica); assay: YLG-based competition assay on HTL proteins of S. hermonthica; assay type: biochemical, Striga hermonthica; conditions: Supplementary Fig. 27
Source text: (§1) In P. aegyptiaca, 5 KAI2s have been proposed as the SL receptors for the regulation of seed germination. […] The high sequence similarity may explain the consistency of these compounds in inducing germination in both S. hermonthica and P. aegyptiaca.
(§2) The excitation and emission wavelengths of YLG are 480 and 520 nm, respectively. We used a fluorescence spectrophotometer (CARY Eclipse) to detect the fluorescence intensity change of YLG during the enzymatic hydrolysis assay process. All the testing compounds and YLG were dissolved in DMSO and prepared as stock solutions just before use. […] The changes of fluorescence at 520 nm of each well were recorded every 1 min for 30 min. Using the reaction mixture without adding enzyme and tested compounds as the background control. After subtracting the background hydrolysis, a linear fluorescence increase in 8 min was used for further inspection. The IC50 values were determined via fitting relative inhibition percentages with the varying concentrations of compounds in Microsoft Excel.
(§3) Supplementary Fig. 27. Binding of compounds 4a, (R)- and (S)-4a, and 4g-i to the HTL proteins in S. hermonthica and KAI2 protein homologs in P. aegyptiaca. In the competitive inhibitory activity assay, YLG (3 µM) was used as the fluorogenic substrate. Error bar indicates SD (n = 3 biologically independent experiments).
(§4) (1 picture or pasted object on this page, not shown here)

[5] = system: PaKAI2s (5 KAI2 protein homologs in P. aegyptiaca); assay: YLG-based competition assay on KAI2 protein homologs of P. aegyptiaca; assay type: biochemical, Phelipanche aegyptiaca; conditions: Supplementary Fig. 27
Source text: as §1, §2, §3, §4

T1 sequence (A0A0M3PNA2 entry or part of it): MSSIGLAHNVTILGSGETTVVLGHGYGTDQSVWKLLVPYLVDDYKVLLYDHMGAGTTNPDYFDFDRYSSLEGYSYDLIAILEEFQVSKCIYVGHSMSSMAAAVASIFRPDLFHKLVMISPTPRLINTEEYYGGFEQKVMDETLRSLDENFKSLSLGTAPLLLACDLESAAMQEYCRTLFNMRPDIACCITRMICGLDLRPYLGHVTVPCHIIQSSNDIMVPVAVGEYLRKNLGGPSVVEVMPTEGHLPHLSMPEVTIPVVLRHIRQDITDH

Question: Which Kd [1] does the source give for CC1=CC(OC(=O)N2CCN(C(=O)COc3ccc(Br)cc3C)CC2)OC1=O (stereo not drawn) [4a] here?
Answer: The Kd was 2.07 ± 0.51 µM.

Question: And the IC50 ([2]; ShHTL7, YLG competition, Supplementary Fig. 27, read-out: IC50, replicate 1)?
Answer: Its IC50 is 0.953 µM.

Question: What about the IC50 ([2]; ShHTL7, YLG competition, Supplementary Fig. 27, read-out: IC50, replicate 2) of the same compound?
Answer: Its IC50 is 1.35 µM.

Question: What about the IC50 ([2]; ShHTL7, YLG competition, Supplementary Fig. 27, read-out: IC50, replicate 3) of the same compound?
Answer: Its IC50 is 1.32 µM.

Question: And the IC50 ([2]; YLG as substrate, text and Fig. 2, read-out: IC50, competitive ShHTL7 inhibition (YLG assay))?
Answer: Its IC50 is 1.21 ± 0.22 µM.

Question: What about the IC50 ([2]; wild-type ShHTL7, average of 3, source data of Fig. 2a,b, Supplementary Figs. 8a, 9a, 20b, read-out: IC50, competitive ShHTL7 inhibition (YLG), source data average) of the same compound?
Answer: Its IC50 is 1.21 µM.

Question: And the half-life at 0.5 mM [3]?
Answer: Its half-life at 0.5 mM is 3.38 h.

Question: What about the IC50 ([4]; ShHTL2, YLG competition, read-out: IC50, replicate 1) of the same compound?
Answer: The IC50 was 56.1 µM.

Question: What about the IC50 ([4]; ShHTL2, YLG competition, read-out: IC50, replicate 2) of the same compound?
Answer: The IC50 was 49 µM.

Question: What about the IC50 ([4]; ShHTL2, YLG competition, read-out: IC50, replicate 3) of the same compound?
Answer: Its IC50 is 62.1 µM.

Question: What about the IC50 ([4]; ShHTL2, average of 3 replicates, read-out: IC50, average) of the same compound?
Answer: The IC50 was 55.8 µM.

Question: What about the IC50 ([4]; ShHTL3, YLG competition, read-out: IC50, replicate 1) of the same compound?
Answer: The IC50 was 43.3 µM.

Question: What about the IC50 ([4]; ShHTL3, YLG competition, read-out: IC50, replicate 2) of the same compound?
Answer: Its IC50 is 41.4 µM.

Question: And the IC50 ([4]; ShHTL3, YLG competition, read-out: IC50, replicate 3)?
Answer: The IC50 was 44.5 µM.

Question: What about the IC50 ([4]; ShHTL3, average of 3 replicates, read-out: IC50, average) of the same compound?
Answer: The IC50 was 43 µM.

Question: And the IC50 ([4]; ShHTL4, YLG competition, read-out: IC50, replicate 1)?
Answer: The IC50 was 6.23 µM.

Question: What about the IC50 ([4]; ShHTL4, YLG competition, read-out: IC50, replicate 2) of the same compound?
Answer: Its IC50 is 4.7 µM.

Question: What about the IC50 ([4]; ShHTL4, YLG competition, read-out: IC50, replicate 3) of the same compound?
Answer: Its IC50 is 3.91 µM.

Question: And the IC50 ([4]; ShHTL4, average of 3 replicates, read-out: IC50, average)?
Answer: Its IC50 is 4.95 µM.

Question: And the IC50 ([4]; ShHTL5, YLG competition, read-out: IC50, replicate 1)?
Answer: The IC50 was 18.6 µM.

Question: What about the IC50 ([4]; ShHTL5, YLG competition, read-out: IC50, replicate 2) of the same compound?
Answer: The IC50 was 15.2 µM.

Question: What about the IC50 ([4]; ShHTL5, YLG competition, read-out: IC50, replicate 3) of the same compound?
Answer: The IC50 was 13.3 µM.

Question: And the IC50 ([4]; ShHTL5, average of 3 replicates, read-out: IC50, average)?
Answer: Its IC50 is 15.7 µM.

Question: What about the IC50 ([4]; ShHTL6, YLG competition, read-out: IC50, replicate 1) of the same compound?
Answer: The IC50 was 28.4 µM.

Question: And the IC50 ([4]; ShHTL6, YLG competition, read-out: IC50, replicate 2)?
Answer: The IC50 was 23.6 µM.

Question: What about the IC50 ([4]; ShHTL6, YLG competition, read-out: IC50, replicate 3) of the same compound?
Answer: Its IC50 is 18.4 µM.

Question: What about the IC50 ([4]; ShHTL6, average of 3 replicates, read-out: IC50, average) of the same compound?
Answer: The IC50 was 23.5 µM.

Question: And the IC50 ([4]; ShHTL8, YLG competition, read-out: IC50, replicate 1)?
Answer: Its IC50 is 14.7 µM.

Question: What about the IC50 ([4]; ShHTL8, YLG competition, read-out: IC50, replicate 2) of the same compound?
Answer: The IC50 was 15.3 µM.

Question: What about the IC50 ([4]; ShHTL8, YLG competition, read-out: IC50, replicate 3) of the same compound?
Answer: The IC50 was 21.5 µM.

Question: What about the IC50 ([4]; ShHTL8, average of 3 replicates, read-out: IC50, average) of the same compound?
Answer: The IC50 was 17.2 µM.

Question: And the IC50 ([4]; ShHTL9, YLG competition, read-out: IC50, replicate 1)?
Answer: The IC50 was 20.4 µM.

Question: What about the IC50 ([4]; ShHTL9, YLG competition, read-out: IC50, replicate 2) of the same compound?
Answer: The IC50 was 21.8 µM.

Question: And the IC50 ([4]; ShHTL9, YLG competition, read-out: IC50, replicate 3)?
Answer: Its IC50 is 26.6 µM.

Question: What about the IC50 ([4]; ShHTL9, average of 3 replicates, read-out: IC50, average) of the same compound?
Answer: Its IC50 is 22.9 µM.

Question: What about the IC50 ([4]; ShHTL10, YLG competition, read-out: IC50, replicate 1) of the same compound?
Answer: Its IC50 is 31.1 µM.

Question: And the IC50 ([4]; ShHTL10, YLG competition, read-out: IC50, replicate 2)?
Answer: The IC50 was 39.7 µM.

Question: What about the IC50 ([4]; ShHTL10, YLG competition, read-out: IC50, replicate 3) of the same compound?
Answer: Its IC50 is 31 µM.

Question: And the IC50 ([4]; ShHTL10, average of 3 replicates, read-out: IC50, average)?
Answer: The IC50 was 33.9 µM.

Question: And the IC50 ([4]; ShHTL11, YLG competition, read-out: IC50, replicate 1)?
Answer: Its IC50 is 9.32 µM.

Question: What about the IC50 ([4]; ShHTL11, YLG competition, read-out: IC50, replicate 2) of the same compound?
Answer: Its IC50 is 9.73 µM.

Question: What about the IC50 ([4]; ShHTL11, YLG competition, read-out: IC50, replicate 3) of the same compound?
Answer: The IC50 was 13.1 µM.

Question: What about the IC50 ([4]; ShHTL11, average of 3 replicates, read-out: IC50, average) of the same compound?
Answer: Its IC50 is 10.7 µM.

Question: And the IC50 ([5]; KAI2C, YLG competition, read-out: IC50, replicate 1)?
Answer: Its IC50 is 10.9 µM.

Question: What about the IC50 ([5]; KAI2C, YLG competition, read-out: IC50, replicate 2) of the same compound?
Answer: The IC50 was 13.8 µM.

Question: What about the IC50 ([5]; KAI2C, YLG competition, read-out: IC50, replicate 3) of the same compound?
Answer: The IC50 was 21.5 µM.

Question: And the IC50 ([5]; KAI2C, average of 3 replicates, read-out: IC50, average)?
Answer: The IC50 was 15.4 µM.

Question: What about the IC50 ([5]; KAI2d1, YLG competition, read-out: IC50, replicate 1) of the same compound?
Answer: The IC50 was 33.3 µM.

Question: And the IC50 ([5]; KAI2d1, YLG competition, read-out: IC50, replicate 2)?
Answer: Its IC50 is 33.3 µM.

Question: And the IC50 ([5]; KAI2d1, YLG competition, read-out: IC50, replicate 3)?
Answer: The IC50 was 24.8 µM.

Question: And the IC50 ([5]; KAI2d1, average of 3 replicates, read-out: IC50, average)?
Answer: The IC50 was 30.5 µM.

Question: What about the IC50 ([5]; KAI2d2, YLG competition, read-out: IC50, replicate 1) of the same compound?
Answer: The IC50 was 40.8 µM.

Question: What about the IC50 ([5]; KAI2d2, YLG competition, read-out: IC50, replicate 2) of the same compound?
Answer: The IC50 was 46.6 µM.

Question: What about the IC50 ([5]; KAI2d2, YLG competition, read-out: IC50, replicate 3) of the same compound?
Answer: The IC50 was 48.6 µM.

Question: And the IC50 ([5]; KAI2d2, average of 3 replicates, read-out: IC50, average)?
Answer: Its IC50 is 45.3 µM.

Question: And the IC50 ([5]; KAI2d3, YLG competition, read-out: IC50, replicate 1)?
Answer: The IC50 was 30.6 µM.

Question: And the IC50 ([5]; KAI2d3, YLG competition, read-out: IC50, replicate 2)?
Answer: Its IC50 is 26.4 µM.

Question: What about the IC50 ([5]; KAI2d3, YLG competition, read-out: IC50, replicate 3) of the same compound?
Answer: Its IC50 is 27.7 µM.

Question: What about the IC50 ([5]; KAI2d3, average of 3 replicates, read-out: IC50, average) of the same compound?
Answer: The IC50 was 28.2 µM.

Question: What about the IC50 ([5]; KAI2d4, YLG competition, read-out: IC50, replicate 1) of the same compound?
Answer: The IC50 was 17.4 µM.

Question: And the IC50 ([5]; KAI2d4, YLG competition, read-out: IC50, replicate 2)?
Answer: The IC50 was 17.7 µM.

Question: And the IC50 ([5]; KAI2d4, YLG competition, read-out: IC50, replicate 3)?
Answer: The IC50 was 26.3 µM.

Question: And the IC50 ([5]; KAI2d4, average of 3 replicates, read-out: IC50, average)?
Answer: Its IC50 is 20.5 µM.
